Among the data in ChEMBL document CHEMBL1156829 (Proc Natl Acad Sci U S A, 2008) are EC50 and CC50 values, retold here.

The test system of data set [1] is Plasmodium falciparum. Nature of the data set: NOVARTIS: Inhibition of Plasmodium falciparum 3D7 (drug-susceptible) proliferation in erythrocyte-based infection assay. In kind it is functional, organism-based. As to conditions: Plasmodium falciparum, 3D7.
Data set [2] has as its system Plasmodium falciparum. Nature of the data set: NOVARTIS: Inhibition of Plasmodium falciparum W2 (drug-resistant) proliferation in erythrocyte-based infection assay. The note with it: Plasmodium falciparum, W2; read-out: EC50. In kind it is functional, organism-based.
Data set [3] is described as follows: NOVARTIS: Cytotoxicity against human hepatocellular carcinoma cell line (Huh7). In kind it is toxicity, cell-based, Huh-7. The note with it: Huh7 cells (hepatocellular carcinoma cell line).

With `CCN(CC)CCNC(=O)C1c2ccccc2C(=O)N(Cc2ccc(F)cc2)C1c1ccc(OC)cc1` (configuration not stated), the EC50 with Plasmodium falciparum [1] was 0.782 µM; in the data set with Plasmodium falciparum [2] it was 2.42 µM. Moreover, in data set [3], the CC50 came to 46.4 µM.
For `CC(C)Nc1ccc(Nc2ccnc3cc4ccccc4cc23)cc1`, in that order: 0.0318 µM, 0.277 µM and 5.4 µM.
For `COc1cccc(NC(=O)C2C3C=CC4(O3)C2C(=O)N(Cc2ccc3c(c2)OCO3)C4C(=O)NC2CCCCC2C)c1` (configuration not stated), in that order: above 12.5 µM, above 5.31 µM and above 100 µM.
For `COCCN(CC(=O)NCc1ccc(OC2CCN(CC(c3ccccc3)c3ccccc3)CC2)cc1)S(=O)(=O)c1ccccc1`, in that order: 1 µM, 0.526 µM and above 10 µM.
As for `c1ccc(-c2nc(-c3ccc4cccnc4c3)n(-n3c(-c4ccc5cccnc5c4)nc(-c4ccccc4)c3-c3ccccc3)c2-c2ccccc2)cc1`, the results for the EC50 in the data set on Plasmodium falciparum [1] and in the data set on Plasmodium falciparum [2] were 3.64 µM and 1.51 µM, respectively. Besides, the CC50 in data set [3] came out at 29.1 µM.
Taken in the same sequence, the figures for `O=S(=O)(NC1=CC2C(=Nc3ccc(NS(=O)(=O)c4ccc(Br)cc4)cc3N2c2ccccc2)C=C1)c1ccc(Br)cc1` (configuration not stated) were 0.929 µM, above 1.47 µM and above 10 µM.
For `CC1(C)N=C(N)N=C(N)N1c1ccc(Br)cc1`, in that order: 0.000592 µM, 0.533 µM and above 10 µM.
For `Cc1cc(N2CCC(N(C)C3CCCC3)CC2)nc2cc(O)ccc12`, the values for the 50% effective concentration (EC50) with Plasmodium falciparum [1] and in the data set on Plasmodium falciparum [2] were 0.312 µM and 1.29 µM, respectively. This compound had a 50% cytotoxic concentration (CC50) in data set [3] of 25.5 µM.
Take `CCCN1CCC(N2C[C@@H](NCc3ccc4c(c3)c3ccccc3n4CC)C[C@H]2C(=O)NCC)CC1`: the values for the half-maximal effective concentration (EC50) in the data set on Plasmodium falciparum [1] and with Plasmodium falciparum [2] were above 0.252 µM and 0.323 µM, respectively. The compound also yielded a CC50 in data set [3] above 6.38 µM.
As for `CC(C)(C)C1=CC(=C2C=C(C(C)(C)C)SC(C(C)(C)C)=C2)C=C(C(C)(C)C)S1`, the EC50 was 0.805 µM in the data set with Plasmodium falciparum [1] and 0.506 µM in the data set on Plasmodium falciparum [2]. In data set [3], the CC50 is above 10 µM.
For `CON(C)C=C(C(=O)Nc1ccc(C(F)(F)F)cc1)C(=O)Nc1ccc(C(F)(F)F)cc1`, in that order: 0.659 µM, 0.515 µM and above 10 µM.
Taken in the same sequence, the figures for `CN(Cc1ccccc1)c1cc(-c2ccccn2)nc(-c2ccccn2)n1` were 0.531 µM, 0.514 µM and above 10 µM.
Taken in the same sequence, the figures for `CC(CCCO)Nc1ccnc2cc(Cl)ccc12` (configuration not stated) were 0.561 µM, 0.513 µM and above 10 µM.
Take `CCCCCCCCC(=O)NCCCCNc1ccnc2cc(Cl)ccc12`: the EC50 worked out at 1.15 µM in the data set with Plasmodium falciparum [1] and 0.286 µM in the data set with Plasmodium falciparum [2]. For the same compound, the CC50 in data set [3] was 5.6 µM.
Consider `Cc1ccc2[nH]c3c(NCCc4ccccc4F)ncnc3c2c1`, for which the EC50 was 0.835 µM with Plasmodium falciparum [1] and 0.843 µM in the data set with Plasmodium falciparum [2]. In data set [3], this compound showed a CC50 of 16.5 µM.
Taken in the same sequence, the figures for `CCN(CC)CCCNC(=S)N(CCN(CC)CC)Cc1cc2ccc(C)c(C)c2[nH]c1=O` were 3.28 µM, above 2.61 µM and 51.1 µM.
With `CN(Cc1ccccc1)c1nc2c(c(=O)[nH]c(=O)n2C)n1CCCSc1ncccn1`, the figures for the EC50 in the data set with Plasmodium falciparum [1] and in the data set on Plasmodium falciparum [2] were above 12.5 µM and 5.19 µM, respectively. This compound also displayed a CC50 in data set [3] above 100 µM.
For `CC(=O)c1c(C)oc2ccc(NS(=O)(=O)c3cccc(C(=O)O)c3)cc12`, the EC50 in the data set with Plasmodium falciparum [1] is above 1.25 µM; with Plasmodium falciparum [2], above 0.515 µM. Also, in data set [3], the 50% cytotoxic concentration (CC50) is above 10 µM.
For `Cc1ccc(NC(=O)CCCCC(=O)Nc2ccc(C)c(Br)c2)cc1Br`, in that order: above 1.16 µM, above 1.45 µM and above 10 µM.
For `Oc1ccccc1Nc1nc(NC2CCCC2)c2ccccc2n1`, in that order: 0.53 µM, 0.877 µM and 16.7 µM.
Taken in the same sequence, the figures for `COc1cccc(N2CCN(CCNCCOc3ccccc3)[C@@H](Cc3ccccc3)C2)c1` were 0.703 µM, 0.383 µM and above 7.31 µM.
Turning to `Clc1cccc(CCNC2CCN(CCc3ccccc3)CC2)c1`, the half-maximal effective concentration (EC50) in the data set with Plasmodium falciparum [1] came to 0.17 µM; in the data set on Plasmodium falciparum [2] it was 0.651 µM. Half-maximal cytotoxicity in data set [3] (CC50) was put at 12.4 µM.
Taken in the same sequence, the figures for `CC(C)CNC(=O)c1cnc(NCCCN2CCCCC2C)nc1NCC(C)C` (configuration not stated) were 0.344 µM, 1.46 µM and above 10 µM.
Consider `CCc1ccc2[nH]c(=O)c(CN(CCN(C)C)C(=S)NCCCN(C)C)cc2c1`, for which the EC50 in the data set with Plasmodium falciparum [1] was 1.76 µM; in the data set with Plasmodium falciparum [2] it was above 1.46 µM. Further, the CC50 in data set [3] was above 10 µM.
For `COc1cccc(C=NNC(=O)c2ccccc2O)c1O`, in that order: 5.38 µM, 0.969 µM and 6.64 µM.
As to `Oc1ccc(-c2ccnc3cc(Cl)ccc23)cc1CNCCN1CCOCC1`, the values for the EC50 in the data set on Plasmodium falciparum [1] and in the data set on Plasmodium falciparum [2] were 0.984 µM and 0.622 µM, respectively. Also, the CC50 in data set [3] was above 11.9 µM.
For `COc1ccc(C2(C(=O)NCc3ccccc3Cl)CCCC2)cc1OC`, in that order: 12 µM, 5.22 µM and above 100 µM.
In the case of `COc1ccc(C(=O)N(CCCC(C)Nc2cc(OC)cc3cccnc23)Cc2ccccc2OC)cc1` (configuration not stated), the values for the EC50 in the data set on Plasmodium falciparum [1] and with Plasmodium falciparum [2] were 0.713 µM and 0.27 µM, respectively. The compound further returned a CC50 in data set [3] of 5.18 µM.
In the case of `CC(C)(C)c1ncccc1OC(=O)C12CC3CC(CC(C3)C1)C2`, the EC50 is 0.349 µM with Plasmodium falciparum [1] and above 1.47 µM with Plasmodium falciparum [2]. In data set [3], this compound showed a CC50 above 10 µM.
Taken in the same sequence, the figures for `Clc1ccc(-c2nc3cc(Cl)cnc3[nH]2)cc1` were 0.565 µM, above 1.25 µM and above 8.52 µM.
Taken in the same sequence, the figures for `CCc1ccc(C(C)=NNc2nc(O)cc(-c3ccccc3)n2)cc1` were 1.78 µM, above 1.46 µM and above 10 µM.
For `CN(C)c1ccc(N=C2NC(=O)/C(=C/c3ccc(Cl)cc3)S2)cc1`, in that order: 0.819 µM, 1.46 µM and above 10 µM.
Turning to `N#CCCN(CC1CCCO1)C(=O)Nc1ccc(Cl)c(C(F)(F)F)c1` (configuration not stated), the EC50 with Plasmodium falciparum [1] was above 1.02 µM; with Plasmodium falciparum [2] it was above 0.523 µM. Besides, the CC50 in data set [3] is above 10 µM.
On to `Cc1ccc(C)c(CN2C(=O)c3ccccc3S(=O)(=O)c3ccc(C(=O)NCCCN4CCCC(C)C4)cc32)c1` (configuration not stated), for which the values for the EC50 in the data set with Plasmodium falciparum [1] and with Plasmodium falciparum [2] were 1.07 µM and 1.75 µM, respectively. In data set [3], half-maximal cytotoxicity (CC50) was put at 12 µM.
For the compound `Cc1ccc(Cl)cc1N1C(=O)[C@@H]2[C@H](C1=O)C1c3ccccc3C=CN1[C@@H]2C(=O)c1cccs1` (some centres not stated), the EC50 with Plasmodium falciparum [1] came out at 1.06 µM; with Plasmodium falciparum [2], 0.529 µM. Also, in data set [3], the CC50 was above 10 µM.
Taken in the same sequence, the figures for `COC(=O)c1c(-c2c(F)cccc2Cl)noc1C=CNc1ccc(OC)cc1` were 10.2 µM, 5.29 µM and above 100 µM.
Regarding `COc1cc(NC(C)CCCN(Cc2ccccc2OC)C(=O)C(C)C)c2ncccc2c1` (configuration not stated), the concentration giving a half-maximal response (EC50) with Plasmodium falciparum [1] stood at 0.684 µM; in the data set with Plasmodium falciparum [2] it was 0.406 µM. In data set [3], this compound displayed a CC50 above 7.7 µM.
For `COc1ccc(Nc2c3c(nc4ccc(NC(=O)c5cc(=O)c6ccccc6o5)cc24)CCCC3)cc1OC`, in that order: 0.303 µM, 0.558 µM and 11.1 µM.
Taken in the same sequence, the figures for `O=C(COC(c1ccccc1)c1c(Cl)cncc1Cl)N1CCNCC1` (configuration not stated) were 0.592 µM, 2.57 µM and 48.2 µM.
On to `N=c1c2c(n(Cc3ccc(Cl)cc3)c3c1CCC3)CCCC2`, for which the results for the EC50 in the data set on Plasmodium falciparum [1] and with Plasmodium falciparum [2] were 0.222 µM and 0.533 µM, respectively. This compound also displayed a CC50 in data set [3] above 10 µM.
For `CCN(CC)CCCNC(=S)N(Cc1ccc(F)cc1)Cc1cc2cc(C)cc(C)c2[nH]c1=O`, in that order: 2.76 µM, 1.2 µM and 22.5 µM.
Regarding `N=c1c2c(n(Cc3ccc(Cl)c(Cl)c3)c3c1CCC3)CCCC2`, the concentration giving a half-maximal response (EC50) is 0.503 µM in the data set on Plasmodium falciparum [1] and 0.506 µM in the data set on Plasmodium falciparum [2]. This compound yielded a CC50 in data set [3] above 10 µM.
Taken in the same sequence, the figures for `N#Cc1cc(-c2cccc(C(F)(F)F)c2)cn(Cc2c(Cl)cccc2Cl)c1=O` were above 7.43 µM, 5.08 µM and above 100 µM.
Taken in the same sequence, the figures for `Cc1oc2c(c1C(=O)NC1CCS(=O)(=O)C1)C(=O)c1ccccc1C2=O` (configuration not stated) were 0.437 µM, 0.127 µM and 2.4 µM.
For the compound `Nc1cc2c(cc1Br)CCCC2`, the EC50 is above 1.03 µM with Plasmodium falciparum [1] and above 1.47 µM in the data set with Plasmodium falciparum [2]. Also, in data set [3], the CC50 is above 10 µM.
Taken in the same sequence, the figures for `C=CCNC(=O)c1ccc2c(c1)N=C(c1ccc(F)cc1)N(CCCC)C2` were 0.191 µM, 2.45 µM and 16.9 µM.
For `C=CCNc1ncnc2c1c(-c1ccccc1)cn2-c1ccccc1`, in that order: 4.52 µM, 5.22 µM and above 100 µM.
`CCOC(=O)CCS(=O)(=O)c1ccc(Br)cc1`: the EC50 is 0.237 µM in the data set with Plasmodium falciparum [1] and above 1.46 µM in the data set on Plasmodium falciparum [2]. The compound further displayed a CC50 in data set [3] above 10 µM.
Regarding `CN(C)CCCNCc1cc(-c2cccnc2)ccc1O`, the EC50 in the data set with Plasmodium falciparum [1] came out at 0.241 µM; in the data set on Plasmodium falciparum [2], 0.514 µM. The compound also displayed a CC50 in data set [3] above 10 µM.
For `OC(CN1CCN(C2c3ccccc3-c3ccccc32)CC1)Cn1c2ccc(Br)cc2c2cc(Br)ccc21` (configuration not stated), in that order: above 11.3 µM, 5.08 µM and above 100 µM.
`CCN1/C(=C/c2sc3ccc(OC)cc3[n+]2CC)C=Cc2cc(C)ccc21`: the EC50 in the data set with Plasmodium falciparum [1] was 0.431 µM; in the data set on Plasmodium falciparum [2], 0.508 µM. In addition, in data set [3], the CC50 was above 10 µM.
Taken in the same sequence, the figures for `c1ccc(N=c2sc(-c3ccccc3)cn2CCCCCCn2cc(-c3ccccc3)sc2=Nc2ccccc2)cc1` were 0.739 µM, 0.525 µM and above 10 µM.
For `Oc1ncnc2c1C(c1ccccc1)c1c(O)ncnc1O2`, in that order: above 0.882 µM, above 0.462 µM and above 8.83 µM.
For `Cc1ccc(-c2cn3ccccc3[n+]2CC(=O)c2ccc(Cl)cc2)cc1[N+](=O)[O-]`, the concentration for a half-maximal effect (EC50) came out at 0.369 µM with Plasmodium falciparum [1] and 0.506 µM in the data set with Plasmodium falciparum [2]. Moreover, the CC50 in data set [3] is above 10 µM.
